# Test results as given in patent US4217357A, “Inhibition of thromboxane synthetase with 3-(imidazol-1-ylalkyl)indoles” (Pfizer Inc., priority 1978, dated 1980).
# Key:
# Type in all cases: biochemical
# [1] = biological target: T1, thromboxane synthetase (Homo sapiens, UniProt P24557); test: Thromboxane A2 (TxA2) synthetase in vitro enzyme assay; settings: for IC50: indomethacin-pretreated human platelet microsomes, PGH2, 0° C., 2 min, 5 min pre-incubation, read-out: Concentration causing 50% inhibition of (1) thromboxane synthetase; for Ratio of (3) to (1): prostacyclin synthetase / thromboxane synthetase 50% inhibition concentrations
# T1 construct: Indomethacin-pretreated human platelet microsomes; from tissue; host or cells: human platelet microsomes
# T1 sequence (P24557 1-533): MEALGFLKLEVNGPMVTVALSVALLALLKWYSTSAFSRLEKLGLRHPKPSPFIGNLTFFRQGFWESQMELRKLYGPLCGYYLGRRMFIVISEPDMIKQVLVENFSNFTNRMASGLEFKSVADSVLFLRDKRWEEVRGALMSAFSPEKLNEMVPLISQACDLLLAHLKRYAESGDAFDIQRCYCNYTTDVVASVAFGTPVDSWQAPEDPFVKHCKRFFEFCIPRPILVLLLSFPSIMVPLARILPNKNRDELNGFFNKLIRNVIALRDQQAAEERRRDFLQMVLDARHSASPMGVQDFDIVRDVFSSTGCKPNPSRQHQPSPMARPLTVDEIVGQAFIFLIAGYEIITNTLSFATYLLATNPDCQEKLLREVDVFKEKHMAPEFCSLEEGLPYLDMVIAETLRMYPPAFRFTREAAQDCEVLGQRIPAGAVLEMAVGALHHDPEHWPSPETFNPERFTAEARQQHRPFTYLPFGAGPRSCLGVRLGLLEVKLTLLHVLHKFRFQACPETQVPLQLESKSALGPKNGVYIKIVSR
# Protocol: Indomethacin-pretreated human platelet microsomes (Science, 1976, 193, 163) are incubated with PGH2 (produced as described in test No. 1) at 0° C. for a period of two minutes, and aliquots of the reaction mixture are then superfused over two rabbit aorta spirals which are separated by a delay coil (2 min.). The latter is required in order to allow for the selective decay of the more unstable thromboxane A2 (Proc. Nat. Acad. Sci., 1975, 72, 2994), thereby enabling separate measurement of the increased isometric tension due to the TxA2 formed and the PGH2 remaining to take place. The test compound is then pre-incubated with the enzyme for a period of five minutes, and its ability to inhibit the thromboxane synthetase enzyme is measured as its reduction of the TxA2 component of the isometric tension.
# [2] = biological target: T2, prostacyclin synthetase (Sus scrofa, UniProt A0A5G2QT35); test: Prostacyclin (PGI2) synthetase in vitro enzyme assay; settings: pig aorta microsomes, PGH2, 22° C., 30 seconds; 5 min pre-incubation; read-out: Concentration causing 50% inhibition of (3) prostacyclin synthetase
# T2 construct: Pig aorta microsomes; from tissue; host or cells: pig aorta microsomes
# T2 sequence (A0A5G2QT35 1-497): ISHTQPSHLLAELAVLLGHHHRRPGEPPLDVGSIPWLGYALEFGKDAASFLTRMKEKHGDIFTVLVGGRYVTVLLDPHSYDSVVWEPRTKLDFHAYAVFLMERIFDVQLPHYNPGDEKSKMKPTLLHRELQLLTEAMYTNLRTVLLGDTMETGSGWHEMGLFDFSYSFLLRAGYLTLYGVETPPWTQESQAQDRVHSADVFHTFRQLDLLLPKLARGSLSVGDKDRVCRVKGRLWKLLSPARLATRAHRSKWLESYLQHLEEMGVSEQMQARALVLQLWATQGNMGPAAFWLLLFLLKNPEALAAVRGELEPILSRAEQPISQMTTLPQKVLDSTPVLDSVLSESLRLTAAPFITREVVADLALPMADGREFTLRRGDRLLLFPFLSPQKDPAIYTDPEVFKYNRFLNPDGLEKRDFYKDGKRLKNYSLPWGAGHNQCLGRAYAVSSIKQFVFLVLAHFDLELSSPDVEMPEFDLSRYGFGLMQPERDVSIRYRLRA
# [3] = biological target: T3, cyclo-oxygenase (Ovis aries, UniProt P05979); test: Cyclo-oxygenase in vitro enzyme assay; settings: ram seminal vesicle microsomes, arachidonic acid 100 μM, 22° C., 1 min; 5 min pre-incubation; read-out: Concentration causing 50% inhibition of (2) cyclo-oxygenase
# T3 construct: Ram seminal vesicle microsomes; from tissue; host or cells: ram seminal vesicle microsomes
# T3 sequence (P05979 25-600): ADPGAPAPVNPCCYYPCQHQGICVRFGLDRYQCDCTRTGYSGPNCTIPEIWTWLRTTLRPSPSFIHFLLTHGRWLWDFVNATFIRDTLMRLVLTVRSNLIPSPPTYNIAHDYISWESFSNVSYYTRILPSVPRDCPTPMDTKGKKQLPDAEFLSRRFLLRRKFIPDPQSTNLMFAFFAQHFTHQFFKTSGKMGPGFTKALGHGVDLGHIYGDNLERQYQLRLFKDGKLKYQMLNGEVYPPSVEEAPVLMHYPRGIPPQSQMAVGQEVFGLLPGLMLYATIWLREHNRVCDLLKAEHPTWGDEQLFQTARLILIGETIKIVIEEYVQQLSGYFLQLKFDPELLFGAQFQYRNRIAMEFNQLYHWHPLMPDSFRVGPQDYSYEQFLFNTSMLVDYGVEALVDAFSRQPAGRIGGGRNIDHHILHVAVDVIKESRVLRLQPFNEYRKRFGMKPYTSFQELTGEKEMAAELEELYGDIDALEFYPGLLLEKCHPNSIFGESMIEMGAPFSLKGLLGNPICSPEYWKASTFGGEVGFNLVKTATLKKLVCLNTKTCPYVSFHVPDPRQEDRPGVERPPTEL
# Protocol: The effect of the compounds of the formula (I) on the thromboxane synthetase enzyme, and the prostacyclin synthetase and cyclo-oxygenase enzymes has been measured by the following in vitro enzyme assay tests:
# Ram seminal vesicle microsomes (Biochemistry, 1971, 10, 2372) are incubated with arachidonic acid (100 μM) at 22° C. for a period of one minute so as to produce PGH2, and aliquots of this reaction mixture are then injected into a stream of Krebs-bicarbonate at 37° C. [containing a mixture of antagonists (Nature, […], 218, 1135) and indomethacin (Brit. J. Pharmacol., 1972, 45, 451)] which is superfusing a spirally-cut rabbit aorta strip (Nature, 1969, 223, 29). The ability of a compound to inhibit the enzyme is measured by comparing the increases in isometric tension produced by PGH2 in the absence of the test compound and again, following pre-incubation of the enzyme with the test compound for a period of five minutes.
SMILES,IC50 [1],Ratio of (3) to (1) [1],IC50 [2],IC50 [3]
"Cc1ccc2[nH]cc(Cn3ccnc3)c2c1 [XI, 3-(imidazol-1-ylmethyl)-5-methylindole]",58 nM,600,35000 nM,–
"CC(C)(C)c1[nH]c2ccccc2c1Cn1ccnc1 [Example VI, 3-(imidazol-1-ylmethyl)-2-tert-butylindole]",–,–,–,> 100000 nM
"CC(c1cn(C)c2ccccc12)n1ccnc1 (stereo not drawn) [XXVIII, 3-[α-(imidazol-1-yl)ethyl]-1-methylindole]",33 nM,–,–,–
"c1ccc2c(Cn3ccnc3)c(C3CC3)[nH]c2c1 [XIII, 2-cyclopropyl-3-(imidazol-1-ylmethyl)indole]",0.1 nM,"8,400",840 nM,> 100000 nM
"FC(F)(F)c1ccc2c(Cn3ccnc3)c[nH]c2c1 [XXIV, 3-(imidazol-1-ylmethyl)-6-trifluoromethylindole]",200 nM,500,100000 nM,–
"O=C(c1cccc(C(F)(F)F)c1)n1cc(Cn2ccnc2)c2ccccc21 [Example XLV, 3-(imidazol-1-ylmethyl)-1-(m-trifluoromethylbenzoyl)indole]",100 nM,–,–,–
"Oc1ccc2[nH]cc(Cn3ccnc3)c2c1 [Example XLVII, 5-hydroxy-3-(imidazol-1-ylmethyl)-indole]",2.3 nM,"3,500",8000 nM,–
"c1ccc(Cc2[nH]c3ccccc3c2Cn2ccnc2)cc1 [XXII, 2-benzyl-3-(imidazol-1-ylmethyl)indole]",1 nM,> 10^5,> 100000 nM,–
c1ccc2c(Cn3ccnc3)c(C34CC5CC(CC(C5)C3)C4)[nH]c2c1 [XIV],2.5 nM,400,1000 nM,–
Clc1ccc(-c2[nH]c3ccccc3c2Cn2ccnc2)cc1 [XXI],110 nM,> 900,> 100000 nM,–
"CC(c1c[nH]c2ccccc12)n1ccnc1 (stereo not drawn) [Example VII, 3-[α-(imidazol-1-yl)ethyl]indole]",30 nM,"3,300",> 100000 nM,–
"COc1ccccc1-c1[nH]c2ccccc2c1Cn1ccnc1 [XVIII, 2-(o-anisyl)-3-(imidazol-1-ylmethyl)indole]",0.38 nM,"3,700",1400 nM,–
"Cc1ccccc1-c1[nH]c2ccccc2c1Cn1ccnc1 [XV, 3-(imidazol-1-ylmethyl)-2-(o-tolyl)indole]",0.014 nM,10^6,14000 nM,–
"COc1ccc(-c2[nH]c3ccccc3c2Cn2ccnc2)cc1 [XIX, 2-(p-anisyl)-3-(imidazol-1-ylmethyl)indole]",120 nM,–,–,–
"CN(C)c1ccc2[nH]cc(Cn3ccnc3)c2c1 [XXIII, 5-dimethylamino-3-(imidazol-1-ylmethyl)indole]",64 nM,"> 1,500",> 100000 nM,–
"c1ccc(COc2ccc3[nH]cc(Cn4ccnc4)c3c2)cc1 [Example XXV, 5-benzyloxy-3-(imidazol-1-ylmethyl)indole]",260 nM,140,37000 nM,–

# Further lines, results first:
IC50 [1],Ratio of (3) to (1) [1],IC50 [2],IC50 [3],SMILES
1.4 nM,"> 70,000",> 100000 nM,–,"CCn1cc(Cn2ccnc2)c2ccccc21 [XXIX, 1-ethyl-3-(imidazol-1-ylmethyl)indole]"
2 nM,850,1700 nM,> 100000 nM,"O=C(c1ccccc1)n1cc(Cn2ccnc2)c2ccccc21 [Example XL, 1-benzoyl-3-(imidazol-1-ylmethyl)indole]"
45 nM,"> 2,200",> 100000 nM,–,"COCCn1cc(Cn2ccnc2)c2ccccc21 [XXXVII, 3-(imidazol-1-ylmethyl)-1-(β-methoxyethyl)indole]"
4 nM,"> 2,500",> 100000 nM,–,"CCCn1cc(Cn2ccnc2)c2ccccc21 [XXX, 3-(imidazol-1-ylmethyl)-1-(n-propyl)indole]"
0.41 nM,"49,000",20000 nM,–,"Cc1ccc(C(=O)n2cc(Cn3ccnc3)c3ccccc32)cc1 [XLII, 3-(imidazol-1-ylmethyl)-1-(p-methylbenzoyl)indole]"
11 nM,"9,000",100000 nM,–,"c1ccc2c(c1)c(Cn1ccnc1)cn2CC1CC1 [XXXVI, 1-cyclopropylmethyl-3-(imidazol-1-ylmethyl)indole]"
4.3 nM,–,–,–,"O=C(C1CC1)n1cc(Cn2ccnc2)c2ccccc21 [XLI, 1-cyclopropylcarbonyl-3-(imidazol-1-yl-methyl)indole]"
0.058 nM,> 1.7×10^6,> 100000 nM,–,"C=CCn1cc(Cn2ccnc2)c2ccccc21 [XXXI, 1-allyl-3-(imidazol-1-ylmethyl)indole]"
1.7 nM,"> 60,000",> 100000 nM,–,"COc1ccc(C(=O)n2cc(Cn3ccnc3)c3ccccc32)cc1 [XLIII, 3-(imidazol-1-ylmethyl)-1-(p-methoxybenzoyl)indole]"
26 nM,"> 3,800",> 100000 nM,–,"CN(C)CCn1cc(Cn2ccnc2)c2ccccc21 [XXXVIII, 1-(β-dimethylaminoethyl)-3-(imidazol-1-ylmethyl)indole]"
36 nM,–,–,–,"C=CCn1cc(C(C)n2ccnc2)c2ccccc21 (stereo not drawn) [XXXII, 1-allyl-3-[α-(imidazol-1-yl)ethyl]indole]"
86 nM,210,18000 nM,–,"Clc1ccc(Cn2cc(Cn3ccnc3)c3ccccc32)cc1 [XXXIX, 1-(p-chlorobenzyl)-3-(imidazol-1-ylmethyl)indole]"
1.2 nM,"57,000",68000 nM,–,"CC(=O)n1cc(Cn2ccnc2)c2ccccc21 [Example XLVI, 1-acetyl-3-(imidazol-1-ylmethyl)indole]"
3.3 nM,300,1000 nM,–,"C=C(C)Cn1cc(Cn2ccnc2)c2ccccc21 [XXXV, 3-(imidazol-1-yl-methyl)-1-methallylindole]"
